Activity calls are given as the source filed them.

Consider six compounds from ChEMBL document CHEMBL1201862, “PubChem BioAssay data set” (2004).

A short description of data set [1]: growth induction of Burl-1 ts yeast mutant, dose response, counter-screen for SUMOylation pathway inhibitor project, whole organism, S. cerevisiae, luminescence (AID 463199). In kind it is functional.
A further data set deals with fMet-Leu-Phe receptor (Homo sapiens, UniProt P21462). Put plainly: FPR ligands, dose response (AID 519). Format: functional.
The next data set addresses Cytochrome P450 2D6 (Homo sapiens, UniProt P10635).
For the next data set, the target named is Cytochrome P450 3A4 (Homo sapiens, UniProt P08684).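 Also: CYP3A4 tested as one member of a cytochrome P450 panel screen.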
The target of data set [2] is T1, Voltage-gated N-type calcium channel alpha-1B subunit/Amyloid beta A4 precursor protein-binding family A member 1 (Homo sapiens, UniProt Q00975+Q02410). Format: protein assay.
For data set [3], the target named is T1, Voltage-gated N-type calcium channel alpha-1B subunit/Amyloid beta A4 precursor protein-binding family A member 1. In kind it is protein assay. The source holds these as a separate data set.
The target of data set [4] is Beta-lactamase (Pseudomonas aeruginosa, UniProt Q79MP6).
Data set [5] has as its target Beta-lactamase (Salmonella choleraesuis (strain SC-B67), UniProt Q5J463).
The target of another data set is T2, ORF 73 (Human herpesvirus 8, UniProt O40947).
T2 sequence (O40947 whole entry): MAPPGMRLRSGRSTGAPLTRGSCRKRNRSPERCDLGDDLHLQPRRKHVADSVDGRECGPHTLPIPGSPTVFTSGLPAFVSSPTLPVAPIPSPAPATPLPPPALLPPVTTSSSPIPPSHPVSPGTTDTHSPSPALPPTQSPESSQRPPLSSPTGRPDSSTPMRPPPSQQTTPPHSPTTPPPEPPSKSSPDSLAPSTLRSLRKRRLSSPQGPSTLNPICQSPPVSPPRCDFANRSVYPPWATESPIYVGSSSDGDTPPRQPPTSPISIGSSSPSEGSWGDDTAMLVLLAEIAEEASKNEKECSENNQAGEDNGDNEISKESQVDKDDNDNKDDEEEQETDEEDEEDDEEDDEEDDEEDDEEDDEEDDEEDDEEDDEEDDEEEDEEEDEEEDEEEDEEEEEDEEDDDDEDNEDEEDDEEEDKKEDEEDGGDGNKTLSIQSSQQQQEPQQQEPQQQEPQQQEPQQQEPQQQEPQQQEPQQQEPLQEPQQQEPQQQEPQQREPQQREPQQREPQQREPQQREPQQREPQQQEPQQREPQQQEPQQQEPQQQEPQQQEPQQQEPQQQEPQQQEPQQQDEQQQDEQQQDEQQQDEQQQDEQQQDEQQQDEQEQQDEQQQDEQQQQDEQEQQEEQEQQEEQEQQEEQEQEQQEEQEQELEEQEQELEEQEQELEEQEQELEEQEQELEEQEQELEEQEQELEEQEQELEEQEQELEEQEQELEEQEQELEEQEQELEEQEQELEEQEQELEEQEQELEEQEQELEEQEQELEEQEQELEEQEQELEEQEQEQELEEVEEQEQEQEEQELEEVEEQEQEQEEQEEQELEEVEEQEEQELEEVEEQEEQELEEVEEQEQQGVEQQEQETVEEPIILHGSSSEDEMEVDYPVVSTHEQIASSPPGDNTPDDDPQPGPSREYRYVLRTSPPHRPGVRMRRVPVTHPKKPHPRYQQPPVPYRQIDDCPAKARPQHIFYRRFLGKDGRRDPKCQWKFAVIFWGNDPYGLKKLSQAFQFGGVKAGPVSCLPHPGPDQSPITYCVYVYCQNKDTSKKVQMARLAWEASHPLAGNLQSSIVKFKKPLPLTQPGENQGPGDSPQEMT
Put plainly: inhibitors of C-LANA binding to LBS DNA, dose response, biochemical, fluorescence polarization, cherry-picked samples (AID 504725).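 Also: fluorescence polarization of a labeled DNA duplex reporting LANA DNA binding; potency is for inhibitors that block LANA binding to the DNA.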 On the set-up: species or system Human gammaherpesvirus 8.

Data set [6] concerns the target UDP-galactopyranose mutase (Mycobacterium tuberculosis, UniProt P9WIQ1). The data set is described as follows: Inhibitors of Mycobacterium tuberculosis UDP-galactopyranose mutase (UGM) enzyme Measured in Biochemical System Using Plate Reader - 2105-02_Inhibitor_Dose_CherryPick_Activity. [Related pubchem assays (depositor defined):AID504439].
A further data set has as its target Keap1/Nrf2 (Homo sapiens, UniProt Q14145). The data set is described as follows: Keap1-Nrf2 protein-protein interaction inhibitors, dose response, biochemical, fluorescence polarization, cherry-picked samples (AID 588683).
Data set [7] concerns the target Intestinal-type alkaline phosphatase (Mus musculus, UniProt P24822). Put plainly: PubChem AID 488874. In kind it is functional.
The target in data set [8] is T3, Intestinal-type alkaline phosphatase (Homo sapiens, UniProt P09923). Put plainly: human intestinal alkaline phosphatase activators, dose response, biochemical, luminescence, uHTS hits (AID 463120). Format: functional.
For data set [9], the target named is T3, Intestinal-type alkaline phosphatase. Put plainly: human IAP activators, dose response, biochemical, luminescent, uHTS hits, set 2 (AID 488817).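 Also: potency of activators that raise enzyme activity.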 In kind it is functional.
The target of data set [10] is T4, Alkaline phosphatase, tissue-nonspecific isozyme (Homo sapiens, UniProt P05186).
T4 sequence (P05186 whole entry): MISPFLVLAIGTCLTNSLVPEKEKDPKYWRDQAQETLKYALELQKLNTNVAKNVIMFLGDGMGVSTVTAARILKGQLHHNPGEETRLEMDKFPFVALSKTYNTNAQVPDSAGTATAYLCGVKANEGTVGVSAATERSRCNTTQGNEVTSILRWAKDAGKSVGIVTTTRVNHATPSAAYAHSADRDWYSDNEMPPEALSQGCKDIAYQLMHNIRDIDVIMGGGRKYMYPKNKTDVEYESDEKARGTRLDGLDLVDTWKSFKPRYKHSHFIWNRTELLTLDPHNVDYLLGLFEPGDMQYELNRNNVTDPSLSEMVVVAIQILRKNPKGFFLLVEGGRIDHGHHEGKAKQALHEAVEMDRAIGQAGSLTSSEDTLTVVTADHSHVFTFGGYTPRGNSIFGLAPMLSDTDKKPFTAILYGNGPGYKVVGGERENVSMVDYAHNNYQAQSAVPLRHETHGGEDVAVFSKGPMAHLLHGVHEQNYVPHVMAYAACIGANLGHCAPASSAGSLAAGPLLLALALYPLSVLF
Put plainly: TNAP enzyme activators, dose response, selectivity assay for human IAP activator project, biochemical, TNAP isozyme, human IAP uHTS hits (AID 488886).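 Also: potency of compounds raising TNAP activity as a selectivity check on IAP activators.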 In kind it is functional.

The next data set addresses Cytochrome P450 2C19 (Homo sapiens, UniProt P33261). The data set is described as follows: Cytochrome panel assay with activity outcomes. Panel member name: p450-cyp2c19 Compounds with AC50 equal or less than 10 uM are considered active. In kind it is functional. The following applies: read-out: AC50.
Another data set has as its target Cytochrome P450 2C9 (Homo sapiens, UniProt P11712).
The target of a further data set is T5, Cytochrome P450 1A2 (Homo sapiens, UniProt P05177).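 Also: PubChem cytochrome P450 panel assay, CYP1A2 panel member.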
T5 sequence (P05177 whole entry): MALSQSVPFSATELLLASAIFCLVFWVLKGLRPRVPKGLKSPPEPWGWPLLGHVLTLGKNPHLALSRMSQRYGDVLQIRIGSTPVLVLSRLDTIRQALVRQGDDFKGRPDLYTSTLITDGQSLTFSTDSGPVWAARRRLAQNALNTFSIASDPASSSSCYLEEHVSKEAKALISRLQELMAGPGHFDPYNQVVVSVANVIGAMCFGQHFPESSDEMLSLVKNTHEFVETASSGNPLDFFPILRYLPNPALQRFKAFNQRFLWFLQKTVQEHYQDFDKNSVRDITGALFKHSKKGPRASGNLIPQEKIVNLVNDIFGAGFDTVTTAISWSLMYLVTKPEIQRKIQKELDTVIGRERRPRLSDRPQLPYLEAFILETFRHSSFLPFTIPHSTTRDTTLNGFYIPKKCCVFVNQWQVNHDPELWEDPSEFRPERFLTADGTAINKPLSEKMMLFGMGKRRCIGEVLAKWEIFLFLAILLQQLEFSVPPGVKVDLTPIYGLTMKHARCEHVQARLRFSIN

Data set [11] in a line: NIH-3T3 fibroblast cytotoxicity, dose response, cytotoxicity control, cell-based, fluorescence, Alamar Blue, secondary assay (AID 2327).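 Also: NIH-3T3 mouse fibroblasts cultured with fluconazole at 8 µg/mL.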 In kind it is functional.
A short description of data set [12]: insulin promoter down-regulators in MIN6 cells, imaging, high-content screening, mouse beta cells (AID 1628). In kind it is functional.
Data set [13] can be described thus: cytotoxicity in MIN6 insulinoma cells, dose response, cytotoxicity control, cell-based, mouse insulinoma (AID 2122).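 Also: confirmatory high-throughput counterscreen run to flag cytotoxic compounds; mouse MIN-6 beta cells carrying an insulin promoter eGFP reporter.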 In kind it is functional.
A short description of data set [14]: C. albicans growth with fluconazole, confirmation, fluorescence, retest (AID 2467). In kind it is functional, cell-based.
The target of data set [15] is T6, Serine/threonine-protein phosphatase (Candida dubliniensis (strain CD36 / CBS 7987 / NCPF 3949 / NRRLY-17841) (Yeast), UniProt B9W6M3).
T6 sequence (B9W6M3 whole entry): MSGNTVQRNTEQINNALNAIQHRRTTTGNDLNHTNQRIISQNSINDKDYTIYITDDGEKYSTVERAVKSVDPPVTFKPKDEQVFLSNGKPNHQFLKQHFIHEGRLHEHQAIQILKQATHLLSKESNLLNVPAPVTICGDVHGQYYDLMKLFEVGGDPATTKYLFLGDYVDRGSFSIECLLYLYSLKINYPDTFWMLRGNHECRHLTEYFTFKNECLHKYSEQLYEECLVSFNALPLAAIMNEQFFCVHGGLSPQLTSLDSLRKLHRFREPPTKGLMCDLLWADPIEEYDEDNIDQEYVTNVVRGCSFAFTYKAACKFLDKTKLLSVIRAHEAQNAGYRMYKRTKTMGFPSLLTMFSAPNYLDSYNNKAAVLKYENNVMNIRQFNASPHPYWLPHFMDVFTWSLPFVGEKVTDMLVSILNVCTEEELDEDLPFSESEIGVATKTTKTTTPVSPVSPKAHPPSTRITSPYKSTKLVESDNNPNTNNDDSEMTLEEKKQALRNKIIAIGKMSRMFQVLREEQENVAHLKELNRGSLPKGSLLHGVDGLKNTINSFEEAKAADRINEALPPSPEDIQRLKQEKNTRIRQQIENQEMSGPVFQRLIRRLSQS
The data set is described as follows: calcineurin pathway inhibitors in yeast reporter, dose response, S. cerevisiae, CDRE-lacZ, luminescence, secondary (AID 2388).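 Also: yeast reporter cells carrying a calcineurin-responsive lacZ construct stimulated with calcium chloride; luminescent beta-galactosidase reporter signal in whole cells rather than isolated phosphatase activity; potency for inhibition where a drop in reporter signal means calcineurin blockade.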 Format: functional, cell-based.

The next data set has as its system INS1. Put plainly: beta cell apoptosis inhibitors, cytokine rescue, dose response, luminescence, retest (AID 449756).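 Also: cell death triggered by IL-1 beta plus TNF-alpha plus IFN-gamma mixture; protective hits raise ATP signal compared with cytokine alone wells.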 In kind it is functional, cell-based. To be noted: Rattus norvegicus.
Data set [16] has as its target ATP-dependent molecular chaperone HSP82 (Candida albicans (strain WO-1) (Yeast), UniProt C4YTQ8). The data set is described as follows: loss of DOC-induced GRE-beta-galactosidase reporter signal, dose response, Hsp90 inhibitor project, S. cerevisiae, luminescence (AID 2400).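 Also: beta-galactosidase luminescence from glucocorticoid response element reporter as proxy for Hsp90 function; inhibitor potency where signal loss means Hsp90 inhibition.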 Format: functional, cell-based.

T1 sequence (Q00975 whole entry): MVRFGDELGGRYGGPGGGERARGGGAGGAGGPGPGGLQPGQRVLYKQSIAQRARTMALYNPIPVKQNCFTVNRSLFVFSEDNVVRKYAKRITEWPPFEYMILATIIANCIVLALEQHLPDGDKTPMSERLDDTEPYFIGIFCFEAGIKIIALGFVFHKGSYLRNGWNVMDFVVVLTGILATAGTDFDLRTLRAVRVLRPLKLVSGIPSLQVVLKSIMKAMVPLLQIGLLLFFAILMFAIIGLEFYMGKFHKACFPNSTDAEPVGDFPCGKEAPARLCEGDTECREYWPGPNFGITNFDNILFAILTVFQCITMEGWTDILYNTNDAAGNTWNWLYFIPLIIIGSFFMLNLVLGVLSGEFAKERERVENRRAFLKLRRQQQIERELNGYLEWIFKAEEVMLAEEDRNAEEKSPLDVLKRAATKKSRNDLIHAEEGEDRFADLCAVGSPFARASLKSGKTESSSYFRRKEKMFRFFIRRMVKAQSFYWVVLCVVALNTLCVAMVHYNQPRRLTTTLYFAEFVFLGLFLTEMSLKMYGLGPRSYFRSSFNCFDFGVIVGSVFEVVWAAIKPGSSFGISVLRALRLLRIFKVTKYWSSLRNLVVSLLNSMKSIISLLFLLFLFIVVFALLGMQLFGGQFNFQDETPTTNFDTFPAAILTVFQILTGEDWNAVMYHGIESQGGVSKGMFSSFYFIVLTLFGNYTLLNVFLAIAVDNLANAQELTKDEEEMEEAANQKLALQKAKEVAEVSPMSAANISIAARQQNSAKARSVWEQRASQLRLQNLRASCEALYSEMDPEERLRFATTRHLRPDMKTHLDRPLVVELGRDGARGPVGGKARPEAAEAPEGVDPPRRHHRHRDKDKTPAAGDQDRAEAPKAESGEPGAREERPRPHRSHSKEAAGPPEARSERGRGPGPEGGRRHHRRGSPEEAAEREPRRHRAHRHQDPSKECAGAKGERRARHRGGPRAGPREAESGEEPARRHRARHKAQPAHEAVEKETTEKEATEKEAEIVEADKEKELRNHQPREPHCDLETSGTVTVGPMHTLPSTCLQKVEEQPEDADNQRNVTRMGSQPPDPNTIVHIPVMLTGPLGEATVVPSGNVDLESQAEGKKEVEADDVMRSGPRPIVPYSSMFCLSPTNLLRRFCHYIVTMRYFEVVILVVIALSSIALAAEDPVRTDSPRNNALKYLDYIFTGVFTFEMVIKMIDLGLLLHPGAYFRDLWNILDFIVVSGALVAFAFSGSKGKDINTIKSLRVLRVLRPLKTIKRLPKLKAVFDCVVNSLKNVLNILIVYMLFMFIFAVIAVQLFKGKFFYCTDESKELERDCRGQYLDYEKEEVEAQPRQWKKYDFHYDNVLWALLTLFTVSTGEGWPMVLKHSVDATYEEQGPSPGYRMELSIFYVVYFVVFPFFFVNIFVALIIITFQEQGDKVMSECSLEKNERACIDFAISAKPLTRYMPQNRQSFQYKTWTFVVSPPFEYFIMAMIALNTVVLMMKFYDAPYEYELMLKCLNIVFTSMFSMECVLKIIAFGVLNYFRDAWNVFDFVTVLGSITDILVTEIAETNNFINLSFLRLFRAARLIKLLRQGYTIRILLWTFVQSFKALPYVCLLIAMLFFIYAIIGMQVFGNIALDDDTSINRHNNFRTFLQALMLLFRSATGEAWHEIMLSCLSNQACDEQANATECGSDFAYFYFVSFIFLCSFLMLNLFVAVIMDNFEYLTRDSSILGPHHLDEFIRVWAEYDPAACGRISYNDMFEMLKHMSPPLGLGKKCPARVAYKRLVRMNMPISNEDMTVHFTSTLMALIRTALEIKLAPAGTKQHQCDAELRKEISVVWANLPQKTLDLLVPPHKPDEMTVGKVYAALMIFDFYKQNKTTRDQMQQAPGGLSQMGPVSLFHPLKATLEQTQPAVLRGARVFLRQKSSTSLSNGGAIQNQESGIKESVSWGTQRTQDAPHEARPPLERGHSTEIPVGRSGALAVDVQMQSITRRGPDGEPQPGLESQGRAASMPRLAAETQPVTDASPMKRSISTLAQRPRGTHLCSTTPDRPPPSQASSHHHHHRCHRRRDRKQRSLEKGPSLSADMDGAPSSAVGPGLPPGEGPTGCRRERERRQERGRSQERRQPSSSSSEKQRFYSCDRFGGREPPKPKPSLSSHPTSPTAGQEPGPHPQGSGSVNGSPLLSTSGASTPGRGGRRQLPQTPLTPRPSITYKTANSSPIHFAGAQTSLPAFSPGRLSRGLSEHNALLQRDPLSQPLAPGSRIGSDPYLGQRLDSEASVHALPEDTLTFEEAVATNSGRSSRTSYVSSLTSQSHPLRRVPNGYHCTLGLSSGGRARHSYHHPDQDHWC
T1 sequence (Q02410 whole entry): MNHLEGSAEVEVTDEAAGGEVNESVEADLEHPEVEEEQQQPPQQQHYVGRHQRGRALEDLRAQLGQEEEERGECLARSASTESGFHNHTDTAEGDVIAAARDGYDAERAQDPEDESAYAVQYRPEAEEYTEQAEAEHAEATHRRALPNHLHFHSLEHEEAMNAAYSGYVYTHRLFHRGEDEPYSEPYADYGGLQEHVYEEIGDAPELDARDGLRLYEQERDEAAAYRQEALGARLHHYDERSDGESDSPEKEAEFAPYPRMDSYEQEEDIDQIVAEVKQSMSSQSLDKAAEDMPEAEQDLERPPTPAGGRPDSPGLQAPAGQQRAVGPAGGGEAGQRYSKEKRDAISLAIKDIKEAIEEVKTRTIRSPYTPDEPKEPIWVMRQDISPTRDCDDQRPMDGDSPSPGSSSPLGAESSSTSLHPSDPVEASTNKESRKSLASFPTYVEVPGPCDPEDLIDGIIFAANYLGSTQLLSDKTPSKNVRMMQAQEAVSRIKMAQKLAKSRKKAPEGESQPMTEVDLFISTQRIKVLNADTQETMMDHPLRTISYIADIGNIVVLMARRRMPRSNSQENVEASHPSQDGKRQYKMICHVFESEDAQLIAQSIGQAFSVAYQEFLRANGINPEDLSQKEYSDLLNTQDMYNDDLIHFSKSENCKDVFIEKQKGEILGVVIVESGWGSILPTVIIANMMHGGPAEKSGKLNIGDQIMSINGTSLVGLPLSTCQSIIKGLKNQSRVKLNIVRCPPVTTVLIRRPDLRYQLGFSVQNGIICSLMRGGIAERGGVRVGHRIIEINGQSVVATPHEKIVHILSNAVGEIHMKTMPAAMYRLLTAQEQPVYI
T3 sequence (P09923 whole entry): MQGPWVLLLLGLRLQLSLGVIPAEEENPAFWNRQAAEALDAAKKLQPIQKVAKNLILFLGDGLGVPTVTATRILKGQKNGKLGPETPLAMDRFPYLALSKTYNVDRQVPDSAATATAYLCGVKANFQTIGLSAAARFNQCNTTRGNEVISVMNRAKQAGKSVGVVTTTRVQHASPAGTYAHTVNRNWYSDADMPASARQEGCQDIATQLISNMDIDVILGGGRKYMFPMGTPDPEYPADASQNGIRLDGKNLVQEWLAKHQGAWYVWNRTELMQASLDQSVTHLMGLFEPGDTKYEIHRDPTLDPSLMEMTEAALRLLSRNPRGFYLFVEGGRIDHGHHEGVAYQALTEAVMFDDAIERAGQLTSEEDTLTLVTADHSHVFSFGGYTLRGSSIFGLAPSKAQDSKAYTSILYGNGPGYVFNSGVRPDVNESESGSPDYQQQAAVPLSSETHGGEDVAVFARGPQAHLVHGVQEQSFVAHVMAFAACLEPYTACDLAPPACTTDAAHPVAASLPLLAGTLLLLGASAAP
Sequence of UDP-galactopyranose mutase (P9WIQ1 whole entry): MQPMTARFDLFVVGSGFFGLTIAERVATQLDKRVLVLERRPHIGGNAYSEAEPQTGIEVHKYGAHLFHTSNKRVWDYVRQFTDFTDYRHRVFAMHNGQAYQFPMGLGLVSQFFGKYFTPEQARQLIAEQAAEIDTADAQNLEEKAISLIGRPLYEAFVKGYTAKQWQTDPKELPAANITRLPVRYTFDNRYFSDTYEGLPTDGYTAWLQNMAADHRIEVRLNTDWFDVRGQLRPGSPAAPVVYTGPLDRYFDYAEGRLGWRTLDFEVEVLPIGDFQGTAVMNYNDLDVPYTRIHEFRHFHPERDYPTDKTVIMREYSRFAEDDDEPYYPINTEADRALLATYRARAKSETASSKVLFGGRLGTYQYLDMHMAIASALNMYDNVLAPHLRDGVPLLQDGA
Sequence of Cytochrome P450 2D6 (P10635 whole entry): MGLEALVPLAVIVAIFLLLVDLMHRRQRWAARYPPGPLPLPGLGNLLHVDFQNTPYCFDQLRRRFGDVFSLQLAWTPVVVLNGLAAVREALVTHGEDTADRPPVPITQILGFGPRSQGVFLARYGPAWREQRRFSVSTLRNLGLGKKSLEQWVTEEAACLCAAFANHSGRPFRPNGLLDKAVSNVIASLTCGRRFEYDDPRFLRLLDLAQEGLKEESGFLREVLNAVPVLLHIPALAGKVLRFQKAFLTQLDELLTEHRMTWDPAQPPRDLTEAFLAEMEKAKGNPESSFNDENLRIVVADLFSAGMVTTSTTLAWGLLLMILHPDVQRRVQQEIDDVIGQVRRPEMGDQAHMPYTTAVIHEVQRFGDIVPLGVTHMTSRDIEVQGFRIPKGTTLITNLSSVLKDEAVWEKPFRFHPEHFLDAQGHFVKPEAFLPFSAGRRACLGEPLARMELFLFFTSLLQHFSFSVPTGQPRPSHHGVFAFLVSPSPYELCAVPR
Sequence of Cytochrome P450 3A4 (P08684 whole entry): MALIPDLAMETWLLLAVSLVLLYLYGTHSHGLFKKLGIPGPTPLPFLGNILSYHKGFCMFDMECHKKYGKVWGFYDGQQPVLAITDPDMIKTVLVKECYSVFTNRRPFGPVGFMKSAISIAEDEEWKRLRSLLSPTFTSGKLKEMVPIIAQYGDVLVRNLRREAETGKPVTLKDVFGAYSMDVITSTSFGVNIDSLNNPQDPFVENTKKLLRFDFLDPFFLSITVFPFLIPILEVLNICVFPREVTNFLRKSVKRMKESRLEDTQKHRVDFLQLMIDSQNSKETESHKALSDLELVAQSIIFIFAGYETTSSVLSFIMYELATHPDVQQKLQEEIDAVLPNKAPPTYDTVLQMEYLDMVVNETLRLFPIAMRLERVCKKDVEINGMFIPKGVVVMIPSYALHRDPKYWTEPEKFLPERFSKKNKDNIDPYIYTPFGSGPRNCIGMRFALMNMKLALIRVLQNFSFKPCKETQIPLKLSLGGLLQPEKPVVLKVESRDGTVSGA

Consider `CCC1SC2=NC(C)=C(C(=O)OCCOC)C(c3ccc(C(=O)OC)cc3)N2C1=O` (stereo not given), for which the AC50 in [1] is 50.8 µM (active).

Consider `Cc1c(C(=O)NC2CCCc3ccccc32)oc2ccc(S(=O)(=O)N3CCOCC3)cc12` (stereo not given), for which the Ki on fMet-Leu-Phe receptor is 37 µM (inactive). Also, the AC50 entry on Cytochrome P450 2D6 and at Cytochrome P450 3A4 was “inconclusive” in each case.

On to `CCCCn1c(=O)[nH]c2nc3cc(N)ccc3nc2c1=O`, for which the half-inhibitory concentration (IC50) in data set [2] was 19.1 µM (active); in data set [3], > 50 µM (inactive); on Beta-lactamase [4], 20.7 µM (inactive); on Beta-lactamase [5] it was 7.87 µM (active). Moreover, the figures for the concentration at half-maximal activity (AC50) (on ORF 73; in data set [6]; at Keap1/Nrf2) were 2.4 µM (active), 2.42 µM (active) and 3.52 µM (active), respectively.

Consider `CCC(C)(C)C1CCc2n[nH]c(C(=O)N/N=C(\C)c3ccco3)c2C1` (stereo not given), for which, in data set [7], the IC50 was > 100 µM (inactive). The 50% effective concentration (EC50) was 8.06 µM (active) in data set [8], 33 µM (active) in [9] and 34.9 µM (active) in data set [10].

As to `CCOC(=O)N1CCN(Cc2nc3c(c(=O)[nH]c(=O)n3C)n2Cc2ccccc2C)CC1`, the half-maximal activity concentration (AC50) is 20 µM (inconclusive) at Cytochrome P450 2C19, 35.5 µM (inconclusive) on Cytochrome P450 2C9 and “inconclusive” at Cytochrome P450 1A2.

In the case of `CCCCCCC[n+]1ccc(-c2cc[n+](CCCCCCC)cc2)cc1`, the concentration giving a half-maximal response (EC50) in [11] was 64.9 µM (active); in [14], 55 nM (active); in data set [15] it was > 180 µM (inactive); in [16] it was > 160 µM (inactive). In addition, the IC50 in data set [12] was 2.74 µM (active); in data set [13] it was 3.65 µM (active). The AC50 in the data set on INS1 was 220 nM (active).
